Melting point data for one compound are collected here from patent US6965048B2, “Hydroxyalkylamide derivatives” (Hoffmann-La Roche Inc., priority 2003, dated 2005).

With `CN(CC[C@H]1CC[C@H](C(=O)N2CCC(C(N)=O)CC2)CC1)C(=O)Oc1ccc(Cl)cc1`, the melting point was 162 to 165 °C (dec.).
